How the values were obtained:
Cytochrome P450 3A4 = Cytochrome P450 3A4 (Homo sapiens, UniProt P08684); assay: Inhibition of human CYP3A4 preincubated for 5 mins followed by NADPH addition measured after 5 to 30 mins by LC-MS analysis; format: ADME; conditions: time 10-35 min
mouse P-gp = assay: Apparent permeability across apical to basolateral side in pig LLC-PK1 cells transfected with mouse P-gp at 1 uM measured upto 120 mins; format: ADME, cell-based, Sus scrofa
[1] = Distribution coefficient between 1-Octanol and aqueous phosphate buffer, logD of the compound at pH 7.4 by shake flask method; format: physicochemical; conditions: 1-octanol/aqueous phosphate buffer
[2] = Clearance in 8 hrs fasted cynomolgus monkey assessed as liver blood flow at 1 mg/kg, iv measured upto 24 hrs by LC-MS/MS analysis; format: ADME, organism-based, Macaca fascicularis; conditions: in vivo
[3] = Volume of distribution at steady state in Sprague-Dawley rat at 2.5 mg/kg, iv measured after 24 hrs by LC-MS/MS analysis; format: ADME, organism-based; conditions: in vivo, read-out: Vdss
[4] = Metabolic stability in cynomolgus monkey hepatocytes assessed as intrinsic clearance measured per million cells incubated upto 120 mins by LC-MS/MS analysis; format: ADME, cell-based, Macaca fascicularis, Hepatocyte; conditions: read-out: CLH
[5] = Clearance in Sprague-Dawley rat assessed as liver blood flow at 2.5 mg/kg, iv measured after 24 hrs by LC-MS/MS analysis; format: ADME, organism-based; conditions: in vivo
[6] = Mutagenicity in Salmonella typhimurium TA7006 in presence or absence of S9 fraction pretreated for 90 mins measured after 48 hrs in dark by AMES test; format: toxicity; conditions: salmonella enterica subsp. enterica serovar typhimurium, s9, 49.5 h; time 2970 min
[7] = Cmax in Sprague-Dawley rat at 10 mg/kg, po measured after 24 to 48 hrs by LC-MS/MS analysis; format: ADME, organism-based; conditions: in vivo, time 24-48 hrs
dengue virus type 2 = assay: In vivo antiviral activity against DENV-2/RL infected in AG129 mouse assessed as increase in efficacy administered as po bid for 3 days; format: functional, organism-based; conditions: dose 0.2-60 mg/kg/day, time 3.0 day
[8] = Oral bioavailability in CD-1 mouse at 10 mg/kg measured upto 24 hrs by LC-MS/MS analysis; format: ADME, organism-based; conditions: in vivo
[9] = AUC in Sprague-Dawley rat at 10 mg/kg, po measured after 24 to 48 hrs by LC-MS/MS analysis; format: ADME, organism-based; conditions: in vivo, time 24-48 hrs
[10] = Clearance in CD-1 mouse assessed as liver blood flow at 2.5 mg/kg, iv measured upto 24 hrs by LC-MS/MS analysis; format: ADME, organism-based; conditions: in vivo
[11] = Cmax in 8 hrs fasted cynomolgus monkey assessed as liver blood flow at 3 mg/kg, po measured upto 24 hrs by LC-MS/MS analysis; format: ADME, organism-based, Macaca fascicularis; conditions: in vivo
[12] = Mutagenicity in Salmonella typhimurium TA7005 in presence or absence of S9 fraction pretreated for 90 mins measured after 48 hrs in dark by AMES test; format: toxicity; conditions: salmonella enterica subsp. enterica serovar typhimurium, s9, 49.5 h; time 2970 min
Cytochrome P450 2D6 = Cytochrome P450 2D6 (Homo sapiens, UniProt P10635); assay: Inhibition of human CYP2D6 preincubated for 5 mins followed by NADPH addition measured after 5 to 30 mins by LC-MS analysis; format: ADME
[13] = Clearance in overnight fasted Beagle dog assessed as liver blood flow at 0.51 mg/kg, iv measured upto 24 hrs by LC-MS/MS analysis; format: ADME, organism-based, Canis lupus familiaris; conditions: in vivo
[14] = Elimination half life in overnight fasted Beagle dog at 0.51 mg/kg, iv measured upto 24 hrs by LC-MS/MS analysis; format: ADME, organism-based, Canis lupus familiaris; conditions: in vivo, read-out: beta t1/2 (converted)
[15] = Metabolic stability in rat hepatocytes assessed as intrinsic clearance measured per million cells incubated upto 120 mins by LC-MS/MS analysis; format: ADME, cell-based, Hepatocyte; conditions: read-out: CLH
[16] = Chromatographic hydrophobicity index, log D of the compound at pH 7.4 by LC/MS analysis; format: physicochemical; conditions: buffer
[17] = Elimination half life in CD-1 mouse at 2.5 mg/kg, iv measured upto 24 hrs by LC-MS/MS analysis; format: ADME, organism-based; conditions: in vivo, read-out: beta t1/2 (converted)
[18] = Volume of distribution at steady state in CD-1 mouse at 2.5 mg/kg, iv measured upto 24 hrs by LC-MS/MS analysis; format: ADME, organism-based; conditions: in vivo, read-out: Vdss
Cytochrome P450 3A5 = Cytochrome P450 3A5 (Homo sapiens, UniProt P20815); assay: Inhibition of human CYP3A5 preincubated for 5 mins followed by NADPH addition measured after 5 to 30 mins by LC-MS analysis; format: ADME; conditions: time 10-35 min
[19] = Clearance in Sprague-Dawley rat at 2.5 mg/kg, iv measured after 24 hrs by LC-MS/MS analysis; format: ADME, organism-based; conditions: in vivo
[20] = AUC in CD-1 mouse at 10 mg/kg, po measured upto 24 hrs by LC-MS/MS analysis; format: ADME, organism-based; conditions: in vivo
[21] = AUC in overnight fasted Beagle dog at 2.37 mg/kg, po measured upto 24 hrs by LC-MS/MS analysis; format: ADME, organism-based, Canis lupus familiaris; conditions: in vivo
[22] = Cmax in overnight fasted Beagle dog at 2.37 mg/kg, po measured upto 24 hrs by LC-MS/MS analysis; format: ADME, organism-based, Canis lupus familiaris; conditions: in vivo
[23] = molecular target: Voltage-gated inwardly rectifying potassium channel KCNH2 (Homo sapiens, UniProt Q12809); assay: Inhibition of human ERG stably expressed in CHO cells by automated Qpatch electrophysiological assay; format: toxicity, cell-based
[24] = Oral bioavailability in overnight fasted Beagle dog at 2.37 mg/kg measured upto 24 hrs by LC-MS/MS analysis; format: ADME, organism-based, Canis lupus familiaris; conditions: in vivo
[25] = Mutagenicity in Salmonella typhimurium TA7004 in presence or absence of S9 fraction pretreated for 90 mins measured after 48 hrs in dark by AMES test; format: toxicity; conditions: salmonella enterica subsp. enterica serovar typhimurium, s9, 49.5 h; time 2970 min
[26] = Volume of distribution at steady state in overnight fasted Beagle dog at 0.51 mg/kg, iv measured upto 24 hrs by LC-MS/MS analysis; format: ADME, organism-based, Canis lupus familiaris; conditions: in vivo, read-out: Vdss
dengue virus type 1 = assay: Antiviral activity against DENV-1 TC974#666 infected in african green monkey Vero cells incubated for 24 hrs measured after 3 days post infection by RT-PCR analysis; format: functional, organism-based; conditions: Dengue virus, TC974#666, Vero; read-out: EC50

Chain of Cytochrome P450 3A4 (P08684 whole entry): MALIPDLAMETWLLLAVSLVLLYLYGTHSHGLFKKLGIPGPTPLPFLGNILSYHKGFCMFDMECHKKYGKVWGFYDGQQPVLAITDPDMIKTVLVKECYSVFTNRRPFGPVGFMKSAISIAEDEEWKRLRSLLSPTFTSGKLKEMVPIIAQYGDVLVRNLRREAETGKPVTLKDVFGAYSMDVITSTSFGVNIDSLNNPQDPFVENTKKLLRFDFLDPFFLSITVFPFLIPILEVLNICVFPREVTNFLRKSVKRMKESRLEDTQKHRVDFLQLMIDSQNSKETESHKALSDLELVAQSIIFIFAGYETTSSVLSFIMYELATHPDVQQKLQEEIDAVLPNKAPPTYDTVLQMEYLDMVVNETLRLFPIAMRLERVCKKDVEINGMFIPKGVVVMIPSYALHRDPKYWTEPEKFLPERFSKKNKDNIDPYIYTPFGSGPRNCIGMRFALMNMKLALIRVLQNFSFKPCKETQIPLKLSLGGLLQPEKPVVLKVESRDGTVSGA
Chain of Voltage-gated inwardly rectifying potassium channel KCNH2 (Q12809 whole entry): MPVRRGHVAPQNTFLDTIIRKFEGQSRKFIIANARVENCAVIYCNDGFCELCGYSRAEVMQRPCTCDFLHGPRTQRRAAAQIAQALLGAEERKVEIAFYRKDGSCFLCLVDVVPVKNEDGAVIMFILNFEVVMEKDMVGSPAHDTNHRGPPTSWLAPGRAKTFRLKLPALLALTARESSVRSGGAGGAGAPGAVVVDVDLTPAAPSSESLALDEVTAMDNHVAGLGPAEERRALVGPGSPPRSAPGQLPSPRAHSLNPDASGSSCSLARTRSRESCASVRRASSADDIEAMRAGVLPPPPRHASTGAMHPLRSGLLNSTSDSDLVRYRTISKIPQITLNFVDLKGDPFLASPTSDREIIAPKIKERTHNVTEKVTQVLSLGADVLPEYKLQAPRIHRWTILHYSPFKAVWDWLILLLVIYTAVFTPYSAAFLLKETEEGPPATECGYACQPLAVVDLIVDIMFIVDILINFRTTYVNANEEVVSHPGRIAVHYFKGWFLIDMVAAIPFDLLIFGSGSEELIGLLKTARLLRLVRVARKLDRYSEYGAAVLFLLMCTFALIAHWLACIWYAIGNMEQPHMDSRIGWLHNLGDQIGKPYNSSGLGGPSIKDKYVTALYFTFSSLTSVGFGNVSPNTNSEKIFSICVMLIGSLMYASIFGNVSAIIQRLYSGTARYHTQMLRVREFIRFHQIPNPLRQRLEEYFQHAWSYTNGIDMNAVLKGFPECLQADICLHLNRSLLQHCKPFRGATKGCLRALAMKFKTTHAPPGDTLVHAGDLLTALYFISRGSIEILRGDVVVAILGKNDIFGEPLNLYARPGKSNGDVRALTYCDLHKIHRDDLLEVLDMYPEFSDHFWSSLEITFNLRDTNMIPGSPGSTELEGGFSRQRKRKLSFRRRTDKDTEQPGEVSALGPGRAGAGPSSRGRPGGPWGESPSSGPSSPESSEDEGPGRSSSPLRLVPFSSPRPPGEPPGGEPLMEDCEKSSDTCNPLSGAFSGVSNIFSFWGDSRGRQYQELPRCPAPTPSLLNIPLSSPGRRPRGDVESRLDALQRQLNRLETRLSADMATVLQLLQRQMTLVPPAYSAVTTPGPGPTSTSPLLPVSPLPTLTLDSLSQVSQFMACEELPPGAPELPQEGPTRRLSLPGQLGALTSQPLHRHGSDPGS
Chain of Cytochrome P450 2D6 (P10635 whole entry): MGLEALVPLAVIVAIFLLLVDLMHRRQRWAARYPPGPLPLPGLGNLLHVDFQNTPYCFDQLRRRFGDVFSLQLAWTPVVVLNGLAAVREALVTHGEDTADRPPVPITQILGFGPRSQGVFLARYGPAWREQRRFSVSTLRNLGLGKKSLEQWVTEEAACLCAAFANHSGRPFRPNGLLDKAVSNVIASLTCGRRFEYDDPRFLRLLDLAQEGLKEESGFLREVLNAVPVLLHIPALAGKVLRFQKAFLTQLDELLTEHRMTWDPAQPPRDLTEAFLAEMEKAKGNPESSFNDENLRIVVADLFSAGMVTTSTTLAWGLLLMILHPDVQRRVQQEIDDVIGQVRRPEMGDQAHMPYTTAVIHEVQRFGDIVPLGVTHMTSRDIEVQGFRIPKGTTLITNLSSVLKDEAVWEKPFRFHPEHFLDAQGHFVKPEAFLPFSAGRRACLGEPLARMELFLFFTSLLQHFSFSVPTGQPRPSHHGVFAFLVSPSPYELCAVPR
Chain of Cytochrome P450 3A5 (P20815 whole entry): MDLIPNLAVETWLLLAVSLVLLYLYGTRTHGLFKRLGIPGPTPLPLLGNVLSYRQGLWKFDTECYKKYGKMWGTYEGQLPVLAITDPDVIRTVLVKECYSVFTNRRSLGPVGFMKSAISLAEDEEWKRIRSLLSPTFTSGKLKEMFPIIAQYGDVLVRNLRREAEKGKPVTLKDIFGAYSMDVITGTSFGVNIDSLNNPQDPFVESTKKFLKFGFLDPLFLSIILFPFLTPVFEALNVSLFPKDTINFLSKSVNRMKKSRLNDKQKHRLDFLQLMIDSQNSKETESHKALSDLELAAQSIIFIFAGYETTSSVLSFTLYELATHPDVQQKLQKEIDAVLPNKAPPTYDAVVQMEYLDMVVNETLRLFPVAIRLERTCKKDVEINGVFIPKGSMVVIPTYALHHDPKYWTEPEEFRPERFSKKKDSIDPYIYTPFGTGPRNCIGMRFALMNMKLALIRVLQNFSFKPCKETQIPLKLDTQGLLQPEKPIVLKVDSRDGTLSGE

COc1cc(N[C@H](C(=O)c2c[nH]c3ccc(OC(F)(F)F)cc23)c2ccc(Cl)cc2OC)cc(S(C)(=O)=O)c1 [MOSNODENVIR]
inhibition (INH) (Cytochrome P450 3A4): Not Active | Papp A→B at 2 h, 1 µM (mouse P-gp): 1 ×10⁻⁶ cm/s | logD [1]: > 4.1 | LBF [2]: 5% | Vd [3]: 4.6 L/kg | hepatocyte CLint [4]: < 1.9 µL/min/1e6 cells | LBF [5]: 7% | Activity [6]: Non-Toxic | Cmax [7]: 629 ng/mL | Activity (dengue virus type 2): Dose-Dependent Effect | bioavailability [8]: 108% | AUC [9]: 15400 ng·h/mL | LBF [10]: 4% | Cmax [11]: 613 ng/mL | Activity [12]: Non-Toxic | IC50 (Cytochrome P450 2D6): > 30 µM | LBF [13]: 21% | half-life [14]: 7.3 h | hepatocyte CLint [15]: < 1.9 µL/min/1e6 cells | Chromatographic log D at pH 7.4 [16]: 3.94 | half-life [17]: 6.2 h | Vd [18]: 2.5 L/kg | inhibition (INH) (Cytochrome P450 3A5): Not Active | clearance [19]: 4.9 mL/min/kg | AUC at 24 h [20]: 35600 ng·h/mL | AUC at 24 h [21]: 2940 ng·h/mL | Cmax [22]: 362 ng/mL | IC50 [23]: > 30 µM | bioavailability [24]: 51% | Activity [25]: Non-Toxic | Vd [26]: 3.1 L/kg | EC50 (dengue virus type 1): 0.0002 µM

From ChEMBL document CHEMBL5518227, “Discovery of JNJ-1802, a First-in-Class Pan-Serotype Dengue Virus NS4B Inhibitor” (J Med Chem, 2024)
